Measurements published in patent US8772494B2, “N-aryl piperidine substituted biphenylcarboxamides as inhibitors of apolipoprotein b” (Janssen Pharmaceutica N.V., priority 2003, dated 2014).

Key:
MTP = MTP (Homo sapiens, UniProt P55157); assay: MTP assay (triglyceride transfer from donor to acceptor vesicles); type: biochemical; details: MTP activity, percent triglyceride transfer, 37° C.; read-out: pIC50 values (= −log IC50 value) (converted)
Protocol: MTP activity was measured using an assay similar to one described by J. R. Wetterau and D. B. Zilversmit in Chemistry and Physics of Lipids, 38, 205-222 (1985). To prepare the donor and acceptor vesicles, the appropriate lipids in chloroform were put into a glass test tube and dried under a stream of N2. A buffer containing 15 mM Tris-HCl pH 7.5, 1 mM EDTA, 40 mM NaCl, 0.02% NaN3 (assay buffer) was added to the dried lipid. The mixture was vortexed briefly and the lipids were then allowed to hydrate for 20 min on ice. Vesicles were then prepared by bath sonication (Branson 2200) at room temperature for maximum 15 min. Butylated hydroxytoluene was included in all vesicle preparations at a concentration of 0.1%. The lipid transfer assay mixture contained donor vesicles (40 nmol phosphatidylcholine, 7.5 mol % of cardiolipin and 0.25 mol % glycerol tri [1-^14C]-oleate), acceptor vesicles (240 nmol phosphatidylcholine) and 5 mg BSA in a total volume of 675 μl in a 1.5 ml microcentrifuge tube. Test compounds were added dissolved in DMSO (0.13% final concentration). After 5 minutes of pre-incubation at 37° C., the reaction was started by the addition of MTP in 100 μl dialysis buffer. The reaction was stopped by the addition of 400 μl DEAE-52 cellulose pre-equilibrated in 15 mM Tris-HCl pH 7.5, 1 mM EDTA, 0.02% NaN3 (1:1, vol/vol). The mixture was agitated for 4 min and centrifuged for 2 min at maximum speed in an Eppendorf centrifuge (4° C.) to pellet the DEAE-52-bound donor vesicles. An aliquot of the supernatant containing the acceptor liposomes was counted and the [^14C]-counts were used to calculate the percent triglyceride transfer from donor to acceptor vesicles.
Resulting IC50 values are enumerated in Table C.2. When the calculated IC50 was below 7, not enough data points were available at the tested concentrations to calculate an IC50 value.

[1] = test system: ApoB secretion, HepG2 cells; assay: Quantification of the secretion of ApoB; type: cell-based; details: Homo sapiens, 24 hours of incubation, secreted apoB immunoprecipitated, read-out: pIC50 values (= −log IC50 value) (converted)
Protocol: HepG2 cells were cultured in 24-well plates in MEM Rega 3 containing 10% fetal calf serum. At 70% confluency, the medium was changed and the test compound or carrier (DMSO, 0.4% final concentration) was added. After 24 hours of incubation, the medium was transferred to Eppendorf tubes and cleared by centrifugation. A sheep antibody directed against either apoB was added to the supernatant and the mixture was kept at 8° C. for 24 hours. Then, rabbit anti-sheep antibody was added and the immune complex was allowed to precipitate for 24 hours at 8° C. The immunoprecipitate was pelleted by centrifugation for 25 minutes at 1320 g and washed twice with a buffer containing 40 mM Mops, 40 mM NaH2PO4, 100 mM NaF, 0.2 mM DTT, 5 mM EDTA, 5 mM EGTA, 1% Triton-X-100, 0.5% sodium deoxycholate (DOC), 0.1% SDS, 0.2 μM leupeptin and 0.2 μM PMSF. Radioactivity in the pellet was quantified by liquid scintillation counting.
Resulting IC50 values are enumerated in Table C.1. When the calculated IC50 was below 6, not enough data points were available at the tested concentrations to calculate an IC50 value.

MTP, sequence (P55157 19-894, species assumed): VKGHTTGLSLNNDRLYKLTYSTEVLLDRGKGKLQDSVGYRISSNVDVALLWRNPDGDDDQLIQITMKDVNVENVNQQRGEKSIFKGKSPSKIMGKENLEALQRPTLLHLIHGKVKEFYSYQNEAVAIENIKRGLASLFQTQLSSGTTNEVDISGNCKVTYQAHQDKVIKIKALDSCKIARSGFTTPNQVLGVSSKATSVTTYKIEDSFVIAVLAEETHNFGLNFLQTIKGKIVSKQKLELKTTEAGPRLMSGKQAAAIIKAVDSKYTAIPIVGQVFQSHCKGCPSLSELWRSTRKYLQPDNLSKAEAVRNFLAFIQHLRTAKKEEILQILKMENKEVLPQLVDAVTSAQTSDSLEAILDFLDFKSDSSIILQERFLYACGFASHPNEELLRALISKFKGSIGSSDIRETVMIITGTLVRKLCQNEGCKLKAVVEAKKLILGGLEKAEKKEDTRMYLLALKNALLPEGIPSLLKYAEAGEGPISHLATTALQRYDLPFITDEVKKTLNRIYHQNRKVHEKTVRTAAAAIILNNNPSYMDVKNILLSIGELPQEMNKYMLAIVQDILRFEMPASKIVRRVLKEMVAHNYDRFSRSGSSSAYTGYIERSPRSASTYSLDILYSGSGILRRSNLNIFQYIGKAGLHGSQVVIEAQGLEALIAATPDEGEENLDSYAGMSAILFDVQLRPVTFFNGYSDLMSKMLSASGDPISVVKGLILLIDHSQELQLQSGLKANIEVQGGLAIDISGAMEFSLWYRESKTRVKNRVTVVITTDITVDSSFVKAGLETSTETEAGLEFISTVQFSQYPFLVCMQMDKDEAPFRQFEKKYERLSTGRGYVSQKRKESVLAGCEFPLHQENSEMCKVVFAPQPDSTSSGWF
MTP, sequence (P07237 18-508 partner, species assumed): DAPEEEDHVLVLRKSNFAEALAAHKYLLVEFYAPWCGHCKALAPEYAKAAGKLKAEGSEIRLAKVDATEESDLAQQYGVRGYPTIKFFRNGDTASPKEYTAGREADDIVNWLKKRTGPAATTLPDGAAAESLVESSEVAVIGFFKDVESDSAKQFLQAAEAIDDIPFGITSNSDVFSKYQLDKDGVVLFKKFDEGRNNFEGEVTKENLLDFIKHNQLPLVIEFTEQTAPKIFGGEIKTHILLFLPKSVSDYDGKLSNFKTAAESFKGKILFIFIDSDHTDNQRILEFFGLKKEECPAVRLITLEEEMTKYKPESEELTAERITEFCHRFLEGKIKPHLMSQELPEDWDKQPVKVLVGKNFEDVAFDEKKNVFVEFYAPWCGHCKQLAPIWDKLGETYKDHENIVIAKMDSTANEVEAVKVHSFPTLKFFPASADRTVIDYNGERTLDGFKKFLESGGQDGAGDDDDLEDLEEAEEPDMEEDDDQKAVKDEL

CCOC(=O)[C@@H](NC(=O)CC1CCN(c2ccc(NC(=O)c3ccccc3-c3ccc(C(F)(F)F)cc3)cc2)CC1)C(C)C [Compound 19] was tested, and the IC50 (MTP) was > 100 nM and the IC50 [1] was 116 nM.

Compound COC(=O)CCC(NC(=O)CC1CCN(c2ccc(NC(=O)c3cccc(C)c3-c3ccc(C(F)(F)F)cc3)cc2)CC1)C(=O)OC (centres unmarked) [Compound 54] has an IC50 (MTP) of 3.11 nM and an IC50 [1] of 488 nM.

For CCOC(=O)[C@H]1CCCN1C(=O)CC1CCN(c2ccc(NC(=O)c3ccccc3-c3ccc(C(F)(F)F)cc3)cc2)CC1 [Compound 13], the IC50 (MTP) was > 100 nM and the IC50 [1] was > 1000 nM.

For CCOC(=O)[C@@H](C)NC(=O)CC1CCN(c2ccc(NC(=O)c3ccccc3-c3ccc(C(F)(F)F)cc3)cc2)CC1 [Compound 18], the IC50 (MTP) was 3.42 nM and the IC50 [1] was < 30 nM.

With COC(=O)C(NC(=O)CC1CCN(c2ccc(NC(=O)c3ccccc3-c3ccc(C(F)(F)F)cc3)cc2)CC1)C(C)C (centres unmarked) [Compound 4] the IC50 (MTP) was 41.3 nM and the IC50 [1] was 48.5 nM.

With COC(=O)CNC(=O)CC1CCN(c2ccc(NC(=O)c3cccc(C)c3-c3ccc(C(F)(F)F)cc3)cc2)CC1 [Compound 43] the IC50 (MTP) was 10.4 nM and the IC50 [1] was 7.03 nM.

In the case of CCNC(=O)[C@H](C)NC(=O)CC1CCN(c2ccc(NC(=O)c3cccc(C)c3-c3ccc(C(F)(F)F)cc3)cc2)CC1 [Compound 49], the IC50 (MTP) is reported as 9.1 nM and the IC50 [1] is reported as 17.3 nM.

Compound CCOC(=O)[C@H](CC(C)C)NC(=O)CC1CCN(c2ccc(NC(=O)c3ccccc3-c3ccc(C(F)(F)F)cc3)cc2)CC1 [Compound 30] has an IC50 (MTP) of 22 nM and an IC50 [1] of 575 nM.

CCOC(=O)CC(NC(=O)CC1CCN(c2ccc(NC(=O)c3ccccc3-c3ccc(C(F)(F)F)cc3)cc2)CC1)c1ccc2c(c1)OCO2 (centres unmarked) [Compound 8] was tested, and the IC50 (MTP) was 20.1 nM and the IC50 [1] was < 30 nM.

CCOC(=O)C(C)NC(=O)CC1CCN(c2ccc(NC(=O)c3ccccc3-c3ccc(C(F)(F)F)cc3)cc2)CC1 (centres unmarked) [Compound 5] was tested, and the IC50 (MTP) was 2.06 nM and the IC50 [1] was < 30 nM.

Work on CCNC(=O)COC(=O)CC1CCN(c2ccc(NC(=O)c3cccc(C)c3-c3ccc(C(F)(F)F)cc3)cc2)CC1 [Compound 51] yielded an IC50 (MTP) of 6.04 nM and an IC50 [1] of 15.5 nM.

CCOC(=O)[C@H](NC(=O)CC1CCN(c2ccc(NC(=O)c3ccccc3-c3ccc(C(F)(F)F)cc3)cc2)CC1)c1ccccc1 [Compound 21] was tested, and the IC50 (MTP) was 3.37 nM and the IC50 [1] was 121 nM.

CCOC(=O)C1CCCN(C(=O)CC2CCN(c3ccc(NC(=O)c4ccccc4-c4ccc(C(F)(F)F)cc4)cc3)CC2)C1 (centres unmarked) [Compound 2] was tested, and the IC50 (MTP) was > 1000 nM and the IC50 [1] was 65.3 nM.

COC(=O)[C@@H](C)NC(=O)CC1CCN(c2ccc(NC(=O)c3cccc(C)c3-c3ccc(C(F)(F)F)cc3)cc2)CC1 [Compound 44] showed an IC50 (MTP) of 1.7 nM and an IC50 [1] of 21.1 nM.

Work on CCOC(=O)CCNC(=O)CC1CCN(c2ccc(NC(=O)c3ccccc3-c3ccc(C(F)(F)F)cc3)cc2)CC1 [Compound 26] yielded an IC50 (MTP) of 8.41 nM and an IC50 [1] of 58.6 nM.

In the case of CCOC(=O)CC[C@@H](NC(=O)CC1CCN(c2ccc(NC(=O)c3cccc(C)c3-c3ccc(C(F)(F)F)cc3)cc2)CC1)C(=O)OCC [Compound 52], the IC50 (MTP) is reported as 3 nM and the IC50 [1] is reported as 74 nM.

In the case of COC(=O)CCNC(=O)CC1CCN(c2ccc(NC(=O)c3cccc(C)c3-c3ccc(C(F)(F)F)cc3)cc2)CC1 [Compound 55], the IC50 (MTP) is reported as 1.62 nM and the IC50 [1] is reported as 6.03 nM.

CCOC(=O)[C@H](C)NC(=O)CC1CCN(c2ccc(N(C)C(=O)c3ccccc3-c3ccc(C(F)(F)F)cc3)cc2)CC1 [Compound 47] was tested, and the IC50 [1] was > 1000 nM.

In the case of COC(=O)[C@@H]1CCCCN1C(=O)CC1CCN(c2ccc(NC(=O)c3ccccc3-c3ccc(C(F)(F)F)cc3)cc2)CC1 [Compound 10], the IC50 (MTP) is reported as > 100 nM and the IC50 [1] is reported as > 1000 nM.

Compound CCOC(=O)C[C@H](NC(=O)CC1CCN(c2ccc(NC(=O)c3ccccc3-c3ccc(C(F)(F)F)cc3)cc2)CC1)C(=O)OCC [Compound 36] has an IC50 (MTP) of 39.4 nM.

CCOC(=O)[C@H]1CCCN(C(=O)CC2CCN(c3ccc(NC(=O)c4ccccc4-c4ccc(C(F)(F)F)cc4)cc3)CC2)C1 [Compound 11] was tested, and the IC50 (MTP) was > 100 nM and the IC50 [1] was > 1000 nM.

In the case of COC(=O)[C@H](CCN)NC(=O)CC1CCN(c2ccc(NC(=O)c3ccccc3-c3ccc(C(F)(F)F)cc3)cc2)CC1 [Compound 27], the IC50 (MTP) is reported as > 100 nM and the IC50 [1] is reported as 643 nM.

With CCOC(=O)[C@@H]1CCCN(C(=O)CC2CCN(c3ccc(NC(=O)c4ccccc4-c4ccc(C(F)(F)F)cc4)cc3)CC2)C1 [Compound 12] the IC50 (MTP) was > 100 nM and the IC50 [1] was > 1000 nM.

COC(=O)[C@H](Cc1c[nH]c2ccccc12)NC(=O)CC1CCN(c2ccc(NC(=O)c3cccc(C)c3-c3ccc(C(F)(F)F)cc3)cc2)CC1 [Compound 53] showed an IC50 (MTP) of 15.7 nM and an IC50 [1] of 126 nM.

Work on CCOC(=O)[C@H](C)NC(=O)CC1CCN(c2ccc(N(C)C(=O)c3cccc(C)c3-c3ccc(C(F)(F)F)cc3)cn2)CC1 [Compound 50] yielded an IC50 (MTP) of 10.4 nM.

Work on CCOC(=O)[C@@H](NC(=O)CC1CCN(c2ccc(NC(=O)c3ccccc3-c3ccc(C(F)(F)F)cc3)cc2)CC1)c1ccccc1 [Compound 22] yielded an IC50 (MTP) of 8.93 nM and an IC50 [1] of 54.8 nM.

In the case of CCOC(=O)C1CCCCN1C(=O)CC1CCN(c2ccc(NC(=O)c3ccccc3-c3ccc(C(F)(F)F)cc3)cc2)CC1 (centres unmarked) [Compound 1], the IC50 (MTP) is reported as > 100 nM and the IC50 [1] is reported as > 1000 nM.

For CCOC(=O)[C@H](NC(=O)CC1CCN(c2ccc(NC(=O)c3ccccc3-c3ccc(C(F)(F)F)cc3)cc2)CC1)C(C)C [Compound 20], the IC50 (MTP) was 6.37 nM and the IC50 [1] was < 30 nM.

In the case of COC(=O)[C@H](CCCCN)NC(=O)CC1CCN(c2ccc(NC(=O)c3ccccc3-c3ccc(C(F)(F)F)cc3)cc2)CC1 [Compound 29], the IC50 (MTP) is reported as > 100 nM and the IC50 [1] is reported as > 1000 nM.

CCOC(=O)C(Cc1c[nH]c2ccccc12)NC(=O)CC1CCN(c2ccc(NC(=O)c3ccccc3-c3ccc(C(F)(F)F)cc3)cc2)CC1 (centres unmarked) [Compound 6] was tested, and the IC50 (MTP) was 9.31 nM and the IC50 [1] was < 30 nM.

In the case of CCOC(=O)[C@@H]1C[C@@H](O)CN1C(=O)CC1CCN(c2ccc(NC(=O)c3ccccc3-c3ccc(C(F)(F)F)cc3)cc2)CC1 [Compound 14], the IC50 (MTP) is reported as > 100 nM and the IC50 [1] is reported as > 1000 nM.

CCOC(=O)[C@H](C)NC(=O)CC1CCN(c2ccc(NC(=O)c3ccccc3-c3ccc(C(F)(F)F)cc3)cc2)CC1 [Compound 17] was tested, and the IC50 (MTP) was 5.6 nM and the IC50 [1] was > 1000 nM.

CCOC(=O)[C@H](C)NC(=O)CC1CCN(c2ccc(NC(=O)c3cccc(C)c3-c3ccc(C(F)(F)F)cc3)nc2)CC1 [Compound 48] showed an IC50 [1] of 670 nM.

Work on COC(=O)[C@H](C)NC(=O)CC1CCN(c2ccc(NC(=O)c3cccc(C)c3-c3ccc(C(F)(F)F)cc3)cc2)CC1 [Compound 46] yielded an IC50 [1] of 218 nM.

In the case of COC(=O)[C@@H]1C[C@H](O)CN1C(=O)CC1CCN(c2ccc(NC(=O)c3ccccc3-c3ccc(C(F)(F)F)cc3)cc2)CC1 [Compound 16], the IC50 (MTP) is reported as > 100 nM and the IC50 [1] is reported as > 1000 nM.

In the case of CCOC(=O)C1CCN(C(=O)CC2CCN(c3ccc(NC(=O)c4ccccc4-c4ccc(C(F)(F)F)cc4)cc3)CC2)CC1 [Compound 35], the IC50 (MTP) is reported as > 100 nM and the IC50 [1] is reported as > 1000 nM.

CCOC(=O)[C@H](Cc1ccccc1)NC(=O)CC1CCN(c2ccc(NC(=O)c3ccccc3-c3ccc(C(F)(F)F)cc3)cc2)CC1 [Compound 24] gave an IC50 (MTP) of 76.7 nM and an IC50 [1] of 841 nM.

CCOC(=O)[C@H](C)NC(=O)CC1CCN(c2ccc(NC(=O)c3cccc(C)c3-c3ccc(C(F)(F)F)cc3)cn2)CC1 [Compound 45] gave an IC50 [1] of 962 nM.

With CCOC(=O)[C@@H](Cc1ccccc1)NC(=O)CC1CCN(c2ccc(NC(=O)c3ccccc3-c3ccc(C(F)(F)F)cc3)cc2)CC1 [Compound 25] the IC50 [1] was > 1000 nM.
